Test results from patent US5068325A, “4,5,7,8-tetrahydro-6H-thiazolo[5,4-d]azepines, their preparation and their use as pharmaceutical compositions” (priority 1988, dated 1991).

Assays:
dopamine D2-receptors = dopamine D2-receptors (Rattus norvegicus, UniProt P61169); experiment: affinity for dopamine D2-receptors by displacement experiments with [3H]-spiperone (rat striatum membranes); assay type: binding
Method: 1Determining the affinity for dopamine D2-receptors by displacement experiments with [^3 H]-spiperone (Modified Method of W. Billard et al., Life Sci. 35, 1885 (1984) and D. J. de Vries and P. M. Beart, Eur. J. Pharmacol. 109, 417 (1985))
Male rats (of the Chbb:Thom strain weighing about 200 g) were killed by a blow to the back of the neck. The brains were removed and dissected on ice. The striata were dissected out, weighed and homogenised in 25 volumes of tris buffer (50 mM tris-HCl, 1 mM EDTA, 5 mM MgCl2 and 1 mM ascorbic acid) for 30 seconds in an Ultra-Turrax at maximum speed, followed by 10 cycles in a Potter-Elvehjem at 1400 rpm. The pellet obtained after centrifuging at 50,000×g at 4° C. for 15 minutes was again taken up in 25 ml of tris buffer and centrifuged under the above conditions. The supernatant was discarded and the pellet obtained was incubated in 25 ml of tris buffer at 37° C. for 30 minutes and then centrifuged again at 50,000×g at 4° C. for 15 minutes. Finally, the pellet obtained was mixed with tris buffer to obtain a homogenate dilution of 1:500 (based on the weight of the striata).
1 ml aliquots of the membrane preparation were incubated with 1 ml of a solution of 0.25 nM [^3 H]-spiperone ([…], Messrs. DuPont NEN) and at increasing concentrations of the test substance (10^-11 to 10^-4 M) at ambient temperature for one hour. Incubation was ended by the addition of 5 ml of ice cold tris buffer and filtration using Whatman GF/B filters. The filters were washed twice, each time with 5 ml of ice cold buffer. The radioactivity of the filters was determined by liquid scintillation measurement in Instagel^(R) (Messrs. Canberra Packard). Non-specific binding was determined in the presence of 10^-5 M haloperidol (Sigma Chemical Co.).
Displacement curves were obtained from the data using the TOPFIT programming package (G. Heinzel in "Pharmacokinetics During Drug Development: Data Analysis and Evaluation Techniques", G. Bozler and J. M. van Rossum Eds., G. Fischer Verlag, Stuttgart 1982, 207).

alpha-2 receptors = target: T1, alpha-2 receptors (Rattus norvegicus, UniProt P22909); experiment: affinity for alpha-2 receptors by displacement experiments with [3H]-clonidine (rat cortex membranes); assay type: binding; conditions: read-out: α2-IC50
T1 sequence (P22909 1-465): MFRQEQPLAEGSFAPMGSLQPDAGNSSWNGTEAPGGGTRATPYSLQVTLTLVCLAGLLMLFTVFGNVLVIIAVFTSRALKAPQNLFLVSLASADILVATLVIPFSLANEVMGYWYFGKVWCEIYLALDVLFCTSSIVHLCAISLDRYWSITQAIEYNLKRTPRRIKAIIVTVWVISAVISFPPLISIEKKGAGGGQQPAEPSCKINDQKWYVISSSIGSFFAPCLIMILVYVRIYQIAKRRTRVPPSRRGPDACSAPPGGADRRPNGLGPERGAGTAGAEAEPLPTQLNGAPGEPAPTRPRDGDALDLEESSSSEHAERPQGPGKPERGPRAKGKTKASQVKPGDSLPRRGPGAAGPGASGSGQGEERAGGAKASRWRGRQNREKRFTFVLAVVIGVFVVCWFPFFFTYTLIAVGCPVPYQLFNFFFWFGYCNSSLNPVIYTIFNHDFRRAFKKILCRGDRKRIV
Method: Determination of the affinity for alpha-2 receptors by displacement experiments with [^3 H] clonidine (Modified Method of B. Jarrott, W. J. Louis and R. J. Summers, Biochem. Pharmacol. 27, 141 (1979))
A male rat (Chbb:Thom strain weighing about 200 g) was killed by a blow to the back of the neck. The brain was removed and the cortex dissected out, weighed and homogenised in 25 volumes of tris buffer (50 mM tris- HCl, pH 7.50) for 30 seconds in an Ultra-Turrax at maximum speed, followed by 10° Cycles in a Potter- Elvehjem at 1400 rpm. The homogenised material was combined with tris buffer to obtain a homogenate dilution of 1:50 (based on the weight of the cortex).
1 ml aliquots of the membrane preparation were incubated for three hours at ambient temperature with 1 ml of a solution of 1 nM of [^3 H]-clonidine (2.2 TBq/mmol, Messrs. DuPont NEN) and with increasing concentrations of the test substance (10^-11 to 10^-4 M). Incubation was ended by the addition of 5 ml of ice-cold tris buffer and filtration through Whatman GF/B filters. The filters were washed twice, each time with 5 ml of ice cold buffer. The radioactivity of the filters was determined by liquid scintillation measurement in Instagel(R) (Messrs. Canberra Packard). The non-specific binding was determined in the presence of 10^-5 M of oxymetazoline (Sigma Chemical Co.).

[1] = test system: hypersensitive dopamine receptor; experiment: motility triggering in the mouse treated 24 hours earlier with reserpine; assay type: in vivo; conditions: Mus musculus, sc; reserpine-treated mice, s.c.; read-out: DLi50 (dosage resulting in 50 running pulses every 5 minutes)
Method: This test determines predominantly agonistic effects on the hypersensitive dopamine receptor.
Male mice are treated 24 hours before the experiment with 5 mg/kg i.p. reserpine. The animals are kept at 25°-30° C. and treated three times with 2 ml of a 5% glucose solution in tyrode s.c. (the first time when the reserpine is given, the second time in the evening of the pre-treatment day and the third time on the morning of the test day).
[…] (The injection volume is usually 0.1 ml/10 g of body weight). 30 minutes later the groups of animals are placed in the observation cages (measuring 42 x 24 x 8 cm) and fitted with an infrared lightbeam in order to measure their activity. The value measured is the frequency with which a group of 6 mice pass through the infra-red beam within 5 minutes ("running pulses/5 minutes"; mean at n=3; mean±s.e.m. at n=6).
3 to 6 groups are tested for each substance.

MPTP monkeys = experiment: post-synaptic dopaminergic activity in MPTP monkeys; assay type: in vivo, rhesus monkey
Source text: 6. Determining the post-synaptic dopaminergic activity in MPTP monkeys (Modified Method of R. S. Burns et al., Proc. Natl. Acad. Sci. 80. 4546 (1983))
The neurotoxin 1-methyl-4-phenyl-1,2,3,6- tetrahydro-pyridine (MPTP) produces in humans and monkeys an irreversible syndrome which in its clinical, pathological, biochemical and pharmacological appearance is very similar to idiopathic Parkinson's disease (Markey et al., Nature 311, 464 (1984)). The reason for this similarity is that MPTP selectively destroys those dopaminergic nerve cells in the substantia nigra of the brain which are also lost by degenerative processes in Parkinson's disease. There is even some discussion that MPTP or an MPTP-like substance might be formed in the body and trigger Parkinson's disease (S. H. Snyder, Nature 311, 514 (1984)). Possibly because of the specific MPTP metabolism, the clinical formation of the MPTP-induced Parkinson syndrome has hitherto been detected only in humans and monkeys. The MPTP model produced in the rhesus monkey is therefore exceptionally suitable for testing the activity of post-synaptically acting dopamine agonists. For this purpose, rhesus monkeys were given MPTP in overall doses of up to about 6 mg/kg of body weight, until the following symptoms appeared: The animals were akinetic and unable to take water and food.
It is clear that with the compounds according to the invention there is no sedative effect or ataxia at a dosage which is several times the MED, which can be put down to the absence of a corresponding activity mediated by the α2- receptors.

Sequence of dopamine D2-receptors (P61169 whole entry): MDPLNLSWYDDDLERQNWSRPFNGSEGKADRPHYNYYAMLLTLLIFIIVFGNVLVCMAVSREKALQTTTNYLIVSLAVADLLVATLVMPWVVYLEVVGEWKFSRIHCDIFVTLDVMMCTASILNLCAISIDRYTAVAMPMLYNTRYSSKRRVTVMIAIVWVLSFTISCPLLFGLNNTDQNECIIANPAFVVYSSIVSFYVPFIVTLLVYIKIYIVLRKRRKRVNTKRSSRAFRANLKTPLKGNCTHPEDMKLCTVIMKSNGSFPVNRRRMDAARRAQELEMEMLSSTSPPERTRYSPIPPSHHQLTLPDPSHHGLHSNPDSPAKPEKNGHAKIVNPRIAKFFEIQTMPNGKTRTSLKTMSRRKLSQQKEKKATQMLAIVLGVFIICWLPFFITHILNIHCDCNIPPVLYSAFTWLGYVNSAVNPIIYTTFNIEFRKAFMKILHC

SMILES: Nc1nc2c(s1)CCN(CC=Cc1ccccn1)CC2 [Example 11a, 2-Amino-6-(3-(2-pyridyl)allyl)-4,5,7,8-tetrahydro-6H-thiazolo[5,4-d]azepin]
- Ki (dopamine D2-receptors; [3H]-spiperone, high-affinity form of the dopamine receptor): 0.0043 µM
- α2-IC50 / D2-Ki (dopamine D2-receptors; relative affinity for dopamine-D2 receptors compared with α2-adrenoceptors, the higher, the higher the D2/α2 selectivity): 176
- IC50 (alpha-2 receptors): 0.76 µM
- ED (50 running pulses/5 min) [1]: 0.35 mg/kg
- Duration of activity (MPTP monkeys; 0.05 mg/kg i.m. (MED)): 1.5 to 2 h
- Side effects (MPTP monkeys; 0.05 mg/kg i.m. (MED)): none
- Duration of activity (MPTP monkeys; 3.00 mg/kg i.m.): 5 h
- minimal effective dose (MPTP monkeys; Primates, in Macaca mulatta, im, rhesus monkeys, i.m., read-out: minimum dose (MED) required to alleviate the Parkinson's symptoms): 0.05 mg/kg

SMILES: Nc1nc2c(s1)CCN(CC=Cc1cccnc1)CC2 [Example 11b, 2-Amino-6-(3-(3-pyridyl)allyl)-4,5,7,8-tetrahydro-6H-thiazolo[5,4-d]azepine]
- ED (50 running pulses/5 min) [1]: 0.29 mg/kg
